Legend:
[1] = local tolerability after repeated subcutaneous application; type: in vivo; settings: Mäuse, subkutan, 5 Tage 2 x pro Tag, 1 bis 10 % Lösungen, 100 mg/kg bis 300 mg/kg
Procedure: (§1) Die erfindungsgemäßen Verbindungen zeigen eine ausgezeichnete lokale Verträglichkeit, z. B, nach subkutaner Applikation, im Gegensatz zu den freien Carbonsäuren. Dazu wurden Mäuse über 5 Tage 2 x pro Tag mit 1 bis 10 % Lösungen der Wirkstoffe subkutan behandelt, entsprechend einer Dosis von 100 mg/kg bis 300 mg/kg. Während der Behandlungsperiode sowie nach Absetzen der Behandlung wurden die Tiere beobachtet. Es zeigte sich, daß die Mäuse, die mit den erfindungsgemäßen Verbindungen, z. […] Somit sind die erfindungsgemäßen Verbindungen lokal deutlich besser verträglich als die entsprechenden freien Carbonsäuren und es können Lösungen im oben genannten Konzentrationsbereich bei guter lokaler Verträglichkeit mehrfach angewendet werden. In einem Mäuseprotektionsversuch (Infektion intraperitoneal, Therapie 30 Minuten nach Infektion durch subkutane Gabe) konnte gezeigt werden, daß die Substanzen nach parenteraler Applikation eine gute protektive Wirkung bei erhöhter lokaler Verträglichkeit des Esters besitzen. Die erfindungsgemäßen Verbindungen sind damit in gleicher Dosis protektiv wirksam wie die deutlich schlechter verträglichen freien Carbonsäuren.

[2] = mouse protection test (intraperitoneal infection, subcutaneous therapy 30 minutes after infection); type: in vivo, Mäuse; settings: sc, Infektion intraperitoneal, Therapie 30 Minuten nach Infektion
Procedure: as §1

Structure (SMILES) | lokale Verträglichkeit (Merkmale einer lokalen Gewebeschädigung im Bereich der Injektionsstelle) [1] | ED (80-100) [2] [mg/kg]
CCOC(=O)c1cn(C2CC2)c2cc(N3CCN(CC)CC3)c(F)cc2c1=O [Beispiel 1, 1-Cyclopropyl-6-fluor-7-(4-ethyl-1-piperazinyl)-1,4-dihydro-4-oxo-chinolin-3-carbonsäureethylester] | keine Merkmale einer lokalen Gewebeschädigung | –
CCN1CCN(c2cc3c(cc2F)c(=O)c(C(=O)O)cn3C2CC2)CC1 [Substanz A] | – | 2.5
CCOC(=O)c1cn(C2CC2)c2cc(N3CCN(CC)CC3)c(F)cc2c1=O [Substanz B] | – | 2.5

Reference: patent publication EP0205029A2, “Quinolinecarboxylic acids with an antibacterial activity” (BAYER AG, priority 1985, dated 1986)
